Where “and” joins values, the source holds several entries; their conditions need not be identical. Equal values may be shown once.

The assay deals with dihydrodipicolinate reductase (DHPR) (Escherichia coli, UniProt P04036). The experiment in a line: Screening of bi-ligands for DHPR (Example 25), kinetic assay at 340 nm. Format: biochemical. The following applies: bi-ligands, Example 25 (FIG. 7); substrate and NADPH near Km. As for the experimental part: Screening of Biligands for Binding to Dihydrodipicolinate Reductase (DHPR)
dihydrodipicolinate reductase (DHPR), sequence (P04036 whole entry): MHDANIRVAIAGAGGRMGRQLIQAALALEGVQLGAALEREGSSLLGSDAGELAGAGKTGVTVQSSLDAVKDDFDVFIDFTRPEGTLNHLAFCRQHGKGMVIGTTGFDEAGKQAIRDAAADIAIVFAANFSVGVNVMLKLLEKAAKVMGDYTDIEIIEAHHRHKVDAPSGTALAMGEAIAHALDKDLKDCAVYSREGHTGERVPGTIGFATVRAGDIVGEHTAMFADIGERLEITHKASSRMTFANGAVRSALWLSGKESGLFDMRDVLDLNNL
This example describes the screening of bi-ligands having common ligand mimics for binding activity to dihydrodipicolinate reductase (DHPR).
Bi-ligands were produced by the methods of Examples 16 to 18. The bi-ligands were screened for binding to DHPR.
Stock solutions of each of the reagents were prepared in the following concentrations. Dilutions of the stock solutions were prepared prior to running the assay in the concentrations indicated below. Dilution of DHPR was prepared in 10 mM HEPES at a pH of 7.4. DHPS was not diluted and was stored in eppindorf tubes.
The L-ASA solution was prepared in the following manner. 180 μM stock solution of ASA was prepared. 100 μl of the ASA stock was mixed with 150 μl of concentrated NaHCO3 and 375 μl of […]. For use in the assay, 28.8 mM L-ASA equal 625 μl of the solution. The L-ASA stock solution was kept at a temperature of −20° C. After dilution, the pH of the 28.8 mM solution was checked and maintained between 1 and 2.
First, the DHPS reaction was monitored at 340 nm prior to and after addition of the inhibitor to detect background reaction with the inhibitor. The solution for background detection was a 945 μl solution containing 0.1 HEPES (pH 7.8), 1 mM pyruvate, 6 μM NADPH, 40 μM L-ASA, and 7 μl of 1 mg/ml DHPS at 25° C. in the volumes provided above. The sample solution was then mixed and incubated for 10 minutes. Next, 500 nM solutions of the inhibitors and enough DMSO to provide a final DMSO concentration of 5% were added. The solution was mixed and incubated for an additional 6 minutes.
In DHPR samples, 5 μl of the diluted DHPR enzyme were added. The sample was mixed for 20 seconds and then the reaction was run for 10 minutes. After a 50 second lag, the samples were read in a Cary spectrophotometer at 340 nm. Reading of the samples was continued until 300 seconds. Cuvette #1 contained the control reaction (no inhibitor), and cuvette #2 contained the positive control reaction in which Cibacron Blue at 2.58 μM was substituted for inhibitor to yield 70 to 80% inhibition. The substrate and NADPH or NAHD were kept near their Km values.
Usually IC50 stands for the concentration at which inhibition is half-maximal. A high value points to a need for much substance. `N=C1NC(=O)C(=Cc2ccc(O)c(C(=O)NCCSc3cc(C(=O)O)nc(C(=O)O)c3)c2)S1` [compound 5a, 4-{2-[2-hydroxy-5-(2-imino-4-oxo-thiazolidin-5-ylidenemethyl)-benzoylamino]-ethylsulfanyl}-pyridine-2,6-dicarboxylic acid]: the IC50 was ~8.2 µM and ~15.5 µM.

Turning to `N=C1NC(=O)C(=Cc2cccc(C(=O)NCCSc3cc(C(=O)O)nc(C(=O)O)c3)c2)S1` [compound 5b, 4-{2-[3-(2-imino-4-oxo-thiazolidin-5-ylidenemethyl)-benzoylamino]-ethylsulfanyl}-pyridine-2,6-dicarboxylic acid], the IC50 is ~1.02 µM.

For `N=C1NC(=O)C(=Cc2ccc(C(=O)NCCSc3cc(C(=O)O)nc(C(=O)O)c3)cc2)S1` [compound 5c, 4-{2-[4-(2-imino-4-oxo-thiazolidin-5-ylidenemethyl)-benzoylamino]-ethylsulfanyl}-pyridine-2,6-dicarboxylic acid], the IC50 is ~33 µM.

The record behind these values is US20050019825A9, “Common ligand mimics: pseudothiohydantoins” (priority 2002, published 2005).
